Source: US8247211B2, “Glycopeptide antibiotics” (American Cyanamid Company, priority 2001, dated 2012)
In brackets after ≈: the same amount, converted by molar mass.

Tests used:
Assay in all cases: In vitro antibacterial evaluation: minimum inhibitory concentration (MIC), broth dilution method
Assay type in all cases: cell-based
Enterococcus sp. = conditions: 18 hours at 35° C.
Outline: (§1)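 Using Muller-Hinton II […] and an inoculum of 5×10^5 CFU/mL, antibiotic dilutions from 64 down to 0.06 μg/mL were tested following NCCLS M7-A2. The MIC is the lowest concentration inhibiting growth, including in methicillin-, penicillin- or vancomycin-resistant clinical isolates.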

Escherichia coli = conditions: 18 hours at 35° C.
Outline: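 Susceptibility determined by NCCLS-recommended broth dilution (M7-A2), Muller-Hinton II […]. Concentration span 64-0.06 μg/mL, inoculum 5×10^5 CFU/mL. Isolates include strains resistant to methicillin, penicillin and/or vancomycin.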

Staphylococcus sp. = system: Staphylococcus sp.
Outline: as §1

Streptococcus sp. = conditions: 18 hours at 35° C.
Outline: as §1

[1] = broth dilution, inoculum 5×10^5 CFU/mL

MIC Enterococcus avium (GC 4558) (Enterococcus sp.; Enterococcus avium (GC 4558)): 2 µg/mL (≈ 1.35 µM) | MIC Enterococcus faecalis (ATCC 29212) (Enterococcus sp.; Enterococcus faecalis (ATCC 29212)): 4 µg/mL (≈ 2.7 µM) | MIC Enterococcus faecalis (GC 2242) (Enterococcus sp.; Enterococcus faecalis (GC 2242)): 4 µg/mL (≈ 2.7 µM) | MIC Enterococcus faecalis (GC 2691) (Enterococcus sp.; Enterococcus faecalis (GC 2691)): 4 µg/mL (≈ 2.7 µM) | MIC Enterococcus faecalis (GC 3059) (Enterococcus sp.; Enterococcus faecalis (GC 3059)): 4 µg/mL (≈ 2.7 µM) | MIC Enterococcus faecalis (GC 4552) (Enterococcus sp.; Enterococcus faecalis (GC 4552)): 4 µg/mL (≈ 2.7 µM) | MIC Enterococcus faecalis (GC 4553) (Enterococcus sp.; Enterococcus faecalis (GC 4553)): 2 µg/mL (≈ 1.35 µM) | MIC Enterococcus faecalis (GC 4554) (Enterococcus sp.; Enterococcus faecalis (GC 4554)): 4 µg/mL (≈ 2.7 µM) | MIC Enterococcus faecalis (GC 6189) (Enterococcus sp.; Enterococcus faecalis (GC 6189)): 4 µg/mL (≈ 2.7 µM) | MIC Enterococcus faecium (GC 2243) (Enterococcus sp.; Enterococcus faecium (GC 2243)): 2 µg/mL (≈ 1.35 µM) | MIC Enterococcus faecium (GC 4556) (Enterococcus sp.; Enterococcus faecium (GC 4556)): 4 µg/mL (≈ 2.7 µM) | MIC Enterococcus faecium (GC 4557) (Enterococcus sp.; Enterococcus faecium (GC 4557)): 0.5 µg/mL (≈ 0.337 µM) | MIC Enterococcus avium (GC 4558) (Enterococcus sp.; [1]): 2 µg/mL (≈ 1.35 µM) | MIC Enterococcus faecalis (ATCC 29212) (Enterococcus sp.; [1]): 4 µg/mL (≈ 2.7 µM) | MIC Enterococcus faecalis (GC 2242) (Enterococcus sp.; [1]): 4 µg/mL (≈ 2.7 µM) | MIC Enterococcus faecalis (GC 2691) (Enterococcus sp.; [1]): 4 µg/mL (≈ 2.7 µM) | MIC Enterococcus faecalis (GC 3059) (Enterococcus sp.; [1]): 4 µg/mL (≈ 2.7 µM) | MIC Enterococcus faecalis (GC 4552) (Enterococcus sp.; [1]): 4 µg/mL (≈ 2.7 µM) | MIC Enterococcus faecalis (GC 4553) (Enterococcus sp.; [1]): 2 µg/mL (≈ 1.35 µM) | MIC Enterococcus faecalis (GC 4554) (Enterococcus sp.; [1]): 4 µg/mL (≈ 2.7 µM) | MIC Enterococcus faecalis (GC 6189) (Enterococcus sp.; [1]): 4 µg/mL (≈ 2.7 µM) | MIC Enterococcus faecium (GC 2243) (Enterococcus sp.; [1]): 2 µg/mL (≈ 1.35 µM) | MIC Enterococcus faecium (GC 4556) (Enterococcus sp.; [1]): 4 µg/mL (≈ 2.7 µM) | MIC Enterococcus faecium (GC 4557) (Enterococcus sp.; [1]): 0.5 µg/mL (≈ 0.337 µM) | MIC Escherichia coli (GC 4559) (Escherichia coli; Escherichia coli (GC 4559)): 64 µg/mL (≈ 43.1 µM) | MIC Escherichia coli (GC 4560) (Escherichia coli; Escherichia coli (GC 4560)): 2 µg/mL (≈ 1.35 µM) | MIC Staphylococcus aureus (ATCC 29213) (Staphylococcus sp.; strain ATCC 29213): 2 µg/mL (≈ 1.35 µM) | MIC Staphylococcus aureus (GC 1131) (Staphylococcus sp.; strain GC 1131): 4 µg/mL (≈ 2.7 µM) | MIC Staphylococcus aureus (GC 3051) (Staphylococcus sp.; strain GC 3051): 2 µg/mL (≈ 1.35 µM) | MIC Staphylococcus aureus (GC 3053) (Staphylococcus sp.; strain GC 3053): 4 µg/mL (≈ 2.7 µM) | MIC Staphylococcus aureus (GC 4541) (Staphylococcus sp.; strain GC 4541): 1 µg/mL (≈ 0.674 µM) | MIC Staphylococcus aureus (GC 4542) (Staphylococcus sp.; strain GC 4542): 4 µg/mL (≈ 2.7 µM) | MIC Staphylococcus aureus-SMITH (GC 4543) (Staphylococcus sp.; strain GC 4543): 2 µg/mL (≈ 1.35 µM) | MIC Staphylococcus aureus (GC 4544) (Staphylococcus sp.; strain GC 4544): 4 µg/mL (≈ 2.7 µM) | MIC Staphylococcus aureus (GC 4545) (Staphylococcus sp.; strain GC 4545): 2 µg/mL (≈ 1.35 µM) | MIC Coagulase Negative Staphylococcus (GC 4547) (Staphylococcus sp.; strain GC 4547): 2 µg/mL (≈ 1.35 µM) | MIC Coagulase Negative Staphylococcus (GC 4548) (Staphylococcus sp.; strain GC 4548): 1 µg/mL (≈ 0.674 µM) | MIC Coagulase Negative Staphylococcus (GC 4549) (Staphylococcus sp.; strain GC 4549): 1 µg/mL (≈ 0.674 µM) | MIC Coagulase Negative Staphylococcus (GC 4551) (Staphylococcus sp.; strain GC 4551): 2 µg/mL (≈ 1.35 µM) | MIC Streptococcus agalactiae (GC 4564) (Streptococcus sp.; Streptococcus agalactiae (GC 4564)): <0.12 µg/mL | MIC Streptococcus pneumoniae (ATCC 6301) (Streptococcus sp.; Streptococcus pneumoniae (ATCC 6301)): 0.25 µg/mL (≈ 0.169 µM) | MIC Streptococcus pneumoniae (GC 1894) (Streptococcus sp.; Streptococcus pneumoniae (GC 1894)): <0.12 µg/mL | MIC Streptococcus pneumoniae (GC 4565) (Streptococcus sp.; Streptococcus pneumoniae (GC 4565)): 0.25 µg/mL (≈ 0.169 µM) | MIC Streptococcus pyogenes (GC 4563) (Streptococcus sp.; Streptococcus pyogenes (GC 4563)): 0.25 µg/mL (≈ 0.169 µM) | MIC Streptococcus agalactiae (GC 4564) (Streptococcus sp.; [1]): <0.12 µg/mL | MIC Streptococcus pneumoniae (ATCC 6301) (Streptococcus sp.; [1]): 0.25 µg/mL (≈ 0.169 µM) | MIC Streptococcus pneumoniae (GC 1894) (Streptococcus sp.; [1]): <0.12 µg/mL | MIC Streptococcus pneumoniae (GC 4565) (Streptococcus sp.; [1]): 0.25 µg/mL (≈ 0.169 µM) | MIC Streptococcus pyogenes (GC 4563) (Streptococcus sp.; [1]): 0.25 µg/mL (≈ 0.169 µM)
SMILES: CCCCN1CC(C(O)C2NC(=O)C(C(O)C3CNC(=N)N3)NC(=O)C(Cc3ccc(OC4OC(CO)C(OC5OC6COC7(OC6C(O)C5O)C5CC6CC(C5)CC7C6)C(O)C4O)cc3)NC(=O)C(C(C)c3ccccc3)NC(=O)CNC(=O)C(CO)NC2=O)N(C2OC(CO)C(O)C(O)C2O)C1=N (stereo not drawn) [Example 224, Cyclo[glycyl-β-methylphenylalanyl-O-[4-O-[4,6-O-(2-adamantylidene)hexopyranosyl]hexopyranosyl]tyrosyl-3-(2-iminoimidazolidin-4-yl)seryl-3-(1-butyl-3-hexopyranosyl-2-iminoimidazolidin-4-yl)serylseryl]]
MIC Staphylococcus haemolyticus (GC 4546) (Staphylococcus sp.; strain GC 4546): 1 µg/mL (≈ 0.674 µM)
